The source of these data is ChEMBL document CHEMBL1201862, “PubChem BioAssay data set” (2004).

Test systems include 786-0; A549; DU-145; HCT-15; IGROV-1; LOX IMVI; M14; MDA-MB-231; NCI-H23; NCI-H522; OVCAR-3; RPMI-8226; RXF 393; SF-268; SK-MEL-28; SK-MEL-2; SNB-75; SW-620; UACC-257; UACC-62.
Assay in all cases: DTP human tumour cell line panel, 48 h

Molecules are shown by their SMILES.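 Grown in 96-well plates, cells were treated for 48 hours with each compound at five concentrations. Insufficient inhibition: endpoint recorded as highest concentration tested. Here, GI50 denotes the concentration required for 50% inhibition of growth.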 Active and inactive are the calls of the source. Cut-off read from the data, not from the text of the source: active = GI50 up to about 1.1 µM and inactive = higher.

Turning to `CCOC(=O)c1ccc(Nc2nc3ccccc3n3cccc23)cc1`, the GI50 is 26.8 µM (inactive) with 786-0; 86.5 µM (inactive) with A549; 86.1 µM (inactive) in the test on DU-145; 21.8 µM with HCT-15; 46.6 µM (inactive) in the test with IGROV-1; 50.2 µM (inactive) in the test on LOX IMVI. Further, the GI50 with M14 was > 100 µM (inactive); in the test on MDA-MB-231, 36 µM (inactive); in the test with NCI-H23, 63.8 µM (inactive); in the test on NCI-H522, 88.1 µM (inactive); in the test on OVCAR-3, 70 µM (inactive); with RPMI-8226 it was > 100 µM (inactive). Also, the GI50 in the test on RXF 393 was 14.3 µM (inactive); in the test with SF-268, 35.7 µM (inactive); in the test on SK-MEL-28 it was 88.1 µM (inactive); in the test with SK-MEL-2 it was 34.6 µM (inactive); with SNB-75, 22.2 µM (inactive); in the test on SW-620, 9.38 µM (inactive). Also, the results for the GI50 in the test with UACC-257 and in the test with UACC-62 were > 100 µM (inactive) and 40.8 µM (inactive), respectively.

Turning to `CCN(CC)c1ccc2c(c1)OC(=O)C(c1nnc(-c3ccc([N+](=O)[O-])cc3)o1)C2` (stereo not given), the GI50 in the test on 786-0 was > 100 µM (inactive); in the test with A549, > 100 µM (inactive); in the test with DU-145, > 100 µM (inactive); with HCT-15, more than 100 µM; in the test on IGROV-1 it was > 100 µM (inactive); with LOX IMVI, > 100 µM (inactive). Besides, the GI50 with M14, in the test with MDA-MB-231, in the test with NCI-H23, with NCI-H522, in the test with OVCAR-3 and in the test on RPMI-8226 was > 100 µM (inactive) throughout. The GI50 in the test on RXF 393 was > 100 µM (inactive); with SF-268, 90.4 µM (inactive); with SK-MEL-28, > 100 µM (inactive); with SK-MEL-2, > 100 µM (inactive); with SNB-75 it was > 100 µM (inactive); with SW-620, > 100 µM (inactive). Moreover, the GI50 in the test with UACC-257 and with UACC-62 was > 100 µM (inactive) each time.

On to `CC1CCCN(CP(=O)(c2ccccc2)c2ccccc2)C1` (stereo not given), for which the GI50 in the test on 786-0 is > 100 µM (inactive); in the test with A549, > 100 µM (inactive); in the test with DU-145 it was > 100 µM (inactive); in the test with HCT-15 it was more than 100 µM; in the test on IGROV-1 it was > 100 µM (inactive); in the test with LOX IMVI, > 100 µM (inactive). Besides, the GI50 was > 100 µM (inactive) in the test with M14; > 100 µM (inactive) with MDA-MB-231; > 100 µM (inactive) in the test on NCI-H23; > 100 µM (inactive) with NCI-H522; 78.2 µM (inactive) in the test with OVCAR-3; 43.5 µM (inactive) in the test on RPMI-8226. Moreover, the GI50 in the test on RXF 393, in the test on SF-268, with SK-MEL-28, in the test on SK-MEL-2, in the test with SNB-75 and in the test with SW-620 was > 100 µM (inactive) in each case. For the same molecule, the GI50 in the test on UACC-257 and in the test on UACC-62 was > 100 µM (inactive) in each case.

In the case of `O=C1OCC2OC(=O)c3cc(O)c(O)c(O)c3-c3c(O)c(O)c(O)c4c3C(=O)OC(C2OC(=O)c2cc(O)c(O)c(O)c2-c2c1cc(O)c(O)c2O)C1OC(=O)c2c-4c(O)c(O)c(O)c2[C@@H]1C(O)C(O)C(O)C(O)CO` (stereo not given in full), the GI50 was 17.4 µM (inactive) in the test on 786-0; 16.4 µM (inactive) in the test on A549; 20.2 µM (inactive) in the test on DU-145; 16.1 µM in the test on HCT-15; 20 µM (inactive) with IGROV-1; 2.25 µM (inactive) with LOX IMVI. Besides, the GI50 in the test with M14 was 17.8 µM (inactive); in the test on MDA-MB-231, 12.7 µM (inactive); with NCI-H23 it was 19.2 µM (inactive); with NCI-H522 it was 18.8 µM (inactive); in the test with OVCAR-3 it was 28.2 µM (inactive); with RPMI-8226, 29 µM (inactive). The GI50 is 19.3 µM (inactive) in the test with RXF 393; 21.5 µM (inactive) with SF-268; 49.1 µM (inactive) with SK-MEL-28; 21.6 µM (inactive) in the test on SK-MEL-2; < 0.01 µM (active) in the test with SNB-75; 19.5 µM (inactive) with SW-620. In addition, the GI50 is 19.4 µM (inactive) in the test with UACC-257 and 17.8 µM (inactive) in the test on UACC-62.

Take `O=C1OC(c2ccc(O)c(-c3ccccc3)c2)(c2ccc(O)c(-c3ccccc3)c2)c2c(Cl)c(Cl)c(Cl)c(Cl)c21`: the GI50 in the test on 786-0 was > 100 µM (inactive); in the test with A549, > 100 µM (inactive); in the test on DU-145, > 100 µM (inactive); in the test with HCT-15, more than 100 µM; in the test on IGROV-1 it was > 100 µM (inactive); in the test with LOX IMVI, > 100 µM (inactive). The GI50 in the test on M14, with MDA-MB-231, in the test with NCI-H23, in the test with NCI-H522, in the test with OVCAR-3 and in the test with RPMI-8226 was > 100 µM (inactive) in each case. Moreover, the GI50 in the test with RXF 393, in the test on SF-268, with SK-MEL-28, with SK-MEL-2, in the test on SNB-75 and with SW-620 was > 100 µM (inactive) in each case. For the same molecule, the GI50 in the test with UACC-257 and in the test on UACC-62 was > 100 µM (inactive) in each case.

For `C#C/C=C/CC1OC(C(Br)CC)CC(Br)C2CC1O2` (stereo not given), the GI50 is 7.69 µM (inactive) in the test with 786-0; 68.7 µM (inactive) in the test with A549; > 100 µM (inactive) in the test on DU-145; 40.7 µM in the test with HCT-15; 3.25 µM (inactive) in the test on IGROV-1; 1.71 µM (inactive) in the test with LOX IMVI. Further, the GI50 in the test on M14 is > 100 µM (inactive); in the test with MDA-MB-231, > 100 µM (inactive); in the test on NCI-H23, > 100 µM (inactive); with NCI-H522, 2.58 µM (inactive); in the test with OVCAR-3, 38.5 µM (inactive); in the test on RPMI-8226, 27.1 µM (inactive). The GI50 in the test on RXF 393 was 48.6 µM (inactive); with SF-268, > 100 µM (inactive); with SK-MEL-28 it was 42.1 µM (inactive); in the test with SK-MEL-2, > 100 µM (inactive); in the test with SNB-75, 52.1 µM (inactive); in the test on SW-620, 34.8 µM (inactive). Further, the GI50 was > 100 µM (inactive) with UACC-257 and 56.2 µM (inactive) in the test on UACC-62.
